Results from paper PMC8577775, “Small molecule allosteric inhibitors of RORγt block Th17-dependent inflammation and associated gene expression in vivo” (PLoS ONE, 2021).

Key:
[1] = tested on: RORγt target genes in KP/C tumor samples; test: RORγt target gene expression in KP/C tumors (qPCR); format: in vivo, mouse
Procedure: For RNA isolation & gene expression, ears are collected on day 4 in RNAlater (Qiagen) and stored at 4°C until processed. Ears were homogenized using Procellys 24 homogenizer & hard tissue homogenizing beads (Bertin Instruments), 2 cycles of 30 seconds @ 6000 rpm in RLT lysis buffer according to manufacturer’s instructions. RNA was isolated using RNAeasy Plus MiniPrep columns (Qiagen) and cDNA generated using SuperScript VILO cDNA Synthesis kit (Invitrogen). Gene expression was quantified using TaqMan Fast Master Mix & and TaqMan FAM-MGB probe sets (Applied Biosystems): Gapdh, Mm99999915_g1, Il17a, Mm00439618_m1, Il17f, Mm00521423_m1, Il22, Mm01226722_g1 & Bclxl, Mm00437783_m1. QPCR reactions were run on QuantStudio 7 instrument. Relative quantification and fold changes were calculated using ddCT values against Gapdh and normalized to control-treated animals. For PDAC xenografts, RNA was isolated from tumor sections using Qiagen RNeasy kit (cat#74106), then cDNA was prepared using 2 μg of RNA and the high capacity RNA to cDNA kit (Applied Biosystems, cat#4387406) as per manufacturer’s instructions. Biomarker expression was determined using Taqman gene expression probes (S1 Table) and Universal master mix (ThermoFisher Scientific cat#4305719) with expression levels normalized to Gapdh. […]

[2] = tested on: PDAC PDO model T031P; test: In vitro organoid formation assay (CellTiter-Glo 3D); format: cell-based; settings: Homo sapiens, T031P, treated 24 hr post-plating
Procedure: Patient derived organoids were established as previously described. Briefly, PDX tumor chunks were minced then enzymatically digested into single cells by using a tumor dissociation Kit (Miltenyi, Cat# 130-095-929). Mouse and human cells were separated through magnetic separation, and isolated tumor cells were cultured on Matrigel-coated dishes. Organoid cultures were maintained by growing on Matrigel in human complete maintenance media: Advanced DMEM/F12 media (Life Technology, Cat# 12634028), 10 mM HEPES (Life Technology, Cat# 15630–080), 1X Glutamax (Life Technology, Cat# 35050–061), 1X Antibiotic-Antimycotic (Life Technology, Cat# 15240–062), 10 mM Nicotinamide (Sigma-Aldrich, Cat# N0636-500G), 250 ng/mL R-Spondin-1 (Peprotech, Cat# 120–38), 100 ng/mL Noggin (Peprotech, Cat# 120-10C), 50 ng/mL EGF (Peprotech, Cat# AF-100-15), 100 ng/mL FGF10 (Peprotech, Cat# 100–26), […] (Sigma-Aldrich, Cat# G9020), 500 nM A83-01 (Sigma, Cat# SML0788), 20 μM Y-27632 (LC Laboratories, Cat# Y-5301), 1X B27 (Life Technology, Cat# 12587010), 10 ng/mL Wnt3a (R&D Systems, Cat# 5036-WN-010), 0.1% Methylcelluose (R&D Systems, Cat# HSC001) and Plasmocin (Invivogen, Cat# Ant-mpp) and were passaged every 10–14 days. Organoids were isolated from Matrigel (Corning, Cat# 08-774-406) in a cell recovery solution (Corning, Cat# CB-40253). Spheroid clusters were then dissociated into a single cell suspension with TrypLE (Gibco, Cat# 12605). […]
(§1) Organoids were isolated and dissociated as described above. Cell numbers were counted by trypan blue exclusion and 5000 cells per well were plated on the Matrigel coated and pre-warmed 96-well plates. […] 100 μl of CellTiter-Glo® 3D reagent (Promega cat# G9682) was added to each well after desired time points and luminescence signal measured after 30 minutes.
(§2) Supplementary file pone.0248034.s010.tif: S6 Fig Schematic of Patient-derived organoids (PDO) growth & formation assays. […] After the indicated treatment schedule organoid growth or formation was assessed by CTG assay. […]

[3] = tested on: PDAC PDO model T031P; test: In vitro organoid growth assay (CellTiter-Glo 3D), T031P; format: cell-based, human; settings: 30 μM, 120 hours of treatment
Procedure: (§3) Patient derived organoids were established as previously described. Briefly, PDX tumor chunks were minced then enzymatically digested into single cells by using a tumor dissociation Kit (Miltenyi, Cat# 130-095-929). Mouse and human cells were separated through magnetic separation, and isolated tumor cells were cultured on Matrigel-coated dishes. […]
as §1, §2

[4] = Intra-tumoral compound concentration, KP/C mouse model; format: in vivo; settings: 16 hours post dosing, mean ± SD
Procedure: In the IMQ-induced inflammation model, whole blood (300–500 μL) was collected and centrifuged (1000 g x 10 min) at 20° C to obtain plasma samples. […] Plasma standard curves were prepared by adding each test compound in to mouse plasma and serial diluting to desired concentration. Blank tumor homogenate and blank plasma was add to plasma standards and tumor homogenate samples, respectively, at 1:1 (v:v) ratio for matrix match of tumor sample analysis. An aliquot of 50 μL of each plasma sample, each tumor sample and each corresponding standards was added to 200 μL of acetonitrile with 100 ng/mL of carbutamide (Sigma Aldrich, St. Louis, MO), internal standard (IS), for protein precipitation, then filtered through a 96-well Orochem filtration plate (Orochem Technologies Inc., Naperville IL). Each extracted test compound in resultant supernatant was analyzed with appropriate liquid chromatography column eluting to a Sciex QTRAP 6500+ LC/MS/MS system (Applied Biosystems, Foster City, CA). Each analyte was characterized by Turbo IonSpray ionization multiple reaction monitoring (MRM). Quantitative drug concentrations were determined by standard calibration curve analysis, using linear fitting with 1/x^2 weighted plot of the analyte/IS peak area ratio vs analyte concentration. […]

[5] = tested on: KP/C pancreatic tumors in C57Bl/6 mice; test: In vivo tumor growth suppression, KP/C mouse model
Procedure: Pancreatic tumor chunks from KP/C mice [20] on C57Bl/6 background were inoculated subcutaneously in the flank of syngeneic mice. […] Tumor volumes and body weight were measured twice each week.
To test whether inhibition of RORγt can lead to tumor growth inhibition we utilized the Kras^G12D/+/Trp53^null/Pdx1-cre (KP/C) mouse model of pancreatic cancer [20]. C57Bl/6 mice were inoculated in the flank with KP/C tumor chunks and enrolled in the study when the average tumor volume reached 200 mm^3. […] To evaluate target engagement, we examined changes in expression of a subset of potential RORγt target genes in tumor samples.

[6] = tested on: PDAC PDO model T020P; test: In vitro organoid growth assay (CellTiter-Glo 3D), T020P; format: cell-based, human; settings: organoid growth assay, up to 30 μM
Procedure: as §3, §1, §2

Q: Which results are given for `O=C(O)[C@@H]1CCC(c2nn(C(=O)c3c(Cl)cccc3C(F)(F)F)c3cccc(F)c23)=C[C@H]1O` [Compound 3]?
A: Klf7 and Osmr expression in tumors ([1]; all treatment groups (alone or with gemcitabine)): decreased in all treatment groups; Msi2 expression in tumors ([1]; combination of Compound 3 and gemcitabine): significant decrease; IC50 ([2]; 120 hours): 30 µM; IC50 ([2]; 168 hours): 10 µM; decrease of organoid growth [3]: ~ 30%; tumor concentration ([4]; in combination with gemcitabine): 222 pmol/g; tumor concentration ([4]; single agent): 47 pmol/g; tumor volume, combination with gemcitabine ([5]; Compound 3 30mg/kg BID plus gemcitabine vs gemcitabine): no additional benefit; tumor volume ([5]; single agent vs vehicle, 28 days of dosing): not statistically significant; viability of T020P PDOs [6]: did not decrease viability
